Test results reported in article PMC10338470, “Phase 1 study of GSK3368715, a type I PRMT inhibitor, in patients with advanced solid tumors” (British Journal of Cancer, 2023).

Legend:
[1] = Safety margins of starting dose from toxicity studies in dogs; type: in vivo; settings: 50 mg starting dose
[2] = in vivo; cited from earlier work
global ADMA levels = tested on: global ADMA levels; set-up: method as in PMID 31257072; settings: preclinical cancer models ref [6]; cited from earlier work
[3] = tested on: circulating free ADMA, cfMMA, cfSDMA; assay: Plasma circulating free ADMA, MMA and SDMA; type: in vivo, human; settings: day 15
Protocol: (§1) Tumor cell and plasma target engagement PD biomarkers were assessed in the dose-escalation cohort on days 1, 8, 15, and 22. In the PK/PD cohort, urine for PK and metabolite profiling was collected postdose on day 1 and through 48 h postdose on day 2, and for 24 h postdose on day 15. Participants underwent an on-treatment tumor biopsy on day 15. Asymmetric arginine 225 (R225) methylation of heterogeneous nuclear ribonucleoprotein A1 (hnRNP-A1) was identified as a target engagement PD of type I PRMT inhibition; treatment with GSK3368715 results in the reduction of asymmetric dimethylarginine 225 (ADMA-R225) on hnRNP-A1 protein in cancer cell lines and peripheral blood mononuclear cells (PBMCs). Noto et al. describe in detail the identification of hnRNP-A1 as a pharmacodynamic biomarker of type I PRMT inhibition, and the development of novel methodologies to accurately and precisely quantitate changes in the levels of ADMA on hnRNP-A1 in both blood and tumor compartments. Levels of ADMA-R225-hnRNP-A1 were measured in fresh frozen and formalin-fixed paired biopsies by liquid chromatography-mass spectrometry (LC-MS) and immunohistochemistry (IHC).

[4] = tested on: ADMA-R225-hnRNP-A1 in tumor biopsies; assay: Tumor biopsy ADMA-R225-hnRNP-A1 by IHC (formalin-fixed); type: in vivo, human; settings: 100-mg dose level, day 15; in 4/8 patients
Protocol: as §1

[5] = tested on: ADMA-R225-hnRNP-A1 in tumor biopsies; assay: Tumor biopsy ADMA-R225-hnRNP-A1 by LC-MS (fresh frozen); type: in vivo, human; settings: 100-mg dose level, day 15
Protocol: as §1

protein SDMA = assay: Protein SDMA in formalin-fixed paired tumor biopsies; type: in vivo, human
[6] = tested on: advanced-stage solid tumors; assay: Best overall response per RECIST 1.1; type: in vivo, human
Protocol: Adverse events were coded using the standard MedDRA groupings and graded according to NCI-CTCAE version 5.0. Clinical chemistry, urinalysis, and coagulation tests were performed predose on days 1, 8, 15, 22, and weekly thereafter. Tumor imaging occurred every 8 weeks until week 33, and then every 16 weeks thereafter. Adverse events and DLTs were summarized descriptively by dose cohort. Pharmacokinetic parameters of GSK3368715 and its metabolites (GSK3963583 and GSK3983164) were estimated in the PK/PD population (all participants for whom a PK sample was obtained) using a noncompartmental analysis model (WinNonlin version 8.1) and summarized descriptively. Best overall response as per RECIST 1.1 was summarized descriptively by dose cohort. Levels of tumor cell and plasma pharmacodynamic biomarkers were also summarized descriptively.

lymphomas = tested on: lymphomas; set-up: method as in PMID 31257072; settings: lymphomas ref [6]; cited from earlier work

## CCOCC1(COCC)CCC(c2[nH]ncc2CN(C)CCNC)CC1 [GSK3368715]
[1]
  Safety margin for the steady state AUC: 16 fold
  Safety margin for the steady state Cmax: 33 fold
[2]
  TEEs reported in preclinical models: no TEEs
Global ADMA levels
  Time of maximal decreases in global ADMA levels: 72 h
[3]; 100 mg
  Increase in cfMMA, mean (SE 11.9%): 24.8%
  Increase in cfSDMA, mean (SE 8.65%): 30.2%
  Reduction in circulating free ADMA, mean (SE 1.98%): 22.5%
[3]; 200 mg
  Increase in cfMMA, mean (SE 18.7%): 43.8%
  Increase in cfSDMA, mean (SE 23.8%): 39.8%
[3]; 200-mg dose group
  Reduction in circulating free ADMA, mean (SE 7.7%): 29.1%
[4]
  Mean reduction of ADMA-hnRNP-A1 in tumor biopsies by IHC (SE 9.36): 2.08%
[5]
  Target engagement in tumor biopsies: modest and variable
[5]; in 4/6 patients
  Mean reduction of ADMA-hnRNP-A1 in tumor biopsies by LC-MS (SE 9.6): 18.5%
Protein SDMA; 7/8 patients
  Patients with increased protein SDMA in formalin-fixed paired biopsies: 88%
Protein SDMA; range −28 to 155%
  Median increase of protein SDMA in formalin-fixed paired biopsies: 48.9%
[6]; 50 mg (n = 3)
  Best response: Complete response: 0 n (%)
  Best response: Missing: 0 n (%)
  Best response: Not evaluable: 1 (33) n (%)
  Best response: Partial response: 0 n (%)
  Best response: Progressive disease: 2 (67) n (%)
  Best response: Stable disease: 0 n (%)
  Overall response rate: Complete response + partial response: 0 n (%)
[6]; 100 mg (n = 16)
  Best response: Complete response: 0 n (%)
  Best response: Missing: 0 n (%)
  Best response: Not evaluable: 0 n (%)
  Best response: Partial response: 0 n (%)
  Best response: Progressive disease: 10 (63) n (%)
  Best response: Stable disease: 6 (38) n (%)
  Overall response rate: Complete response + partial response: 0 n (%)
[6]; 200 mg (n = 12)
  Best response: Complete response: 0 n (%)
  Best response: Missing: 3 (25) n (%)
  Best response: Not evaluable: 0 n (%)
  Best response: Partial response: 0 n (%)
  Best response: Progressive disease: 6 (50) n (%)
  Best response: Stable disease: 3 (25) n (%)
  Overall response rate: Complete response + partial response: 0 n (%)
[6]; 6 patients with MTAP gene deletion
  Patients with stable disease among patients with MTAP gene deletion: 2
[6]; 6 patients with MTAP gene deletion, treatment exposure 15 days to 37 days
  Patients with progressive disease among patients with MTAP gene deletion: 4
[6]; Total (N = 31)
  Best response: Complete response: 0 n (%)
  Best response: Missing: 3 (10) n (%)
  Best response: Not evaluable: 1 (3) n (%)
  Best response: Partial response: 0 n (%)
  Best response: Progressive disease: 18 (58) n (%)
  Best response: Stable disease: 9 (29) n (%)
[6]; all dose groups
  Disease stability, patients: 29%
lymphomas
  Cell lines with cytotoxic responses: 56%
